Assays:
BTK C481S kinase = biological target: T1, BTK C481S kinase (Homo sapiens, UniProt Q06187, C481S); assay: HTRF kinase activity inhibition assay, BTK C481S; assay type: biochemical; details: HTRF TK kit
T1 construct: purchased Carna 08-547
Text: (§1) In this assay, the HTRF TK Kit (Catalog No. 62TKOPEC) provided by Cisbio was used to detect the inhibitory activity of compounds on BTK kinase and BTK C481S kinase and the selectivity of compounds relative to EGFR, ITK and TEC kinases.
(§2) Reagents and consumables: BTK kinase (Invitrogen, Catalog No. PV3587), BTK C481S (Carna, Product No. 08-547), ITK (Carna, Product No. 08-181), EGFR (Carna, Product No. 08-115), TEC (Carna, Product No. 08-182), HTRF-TK kit (Cisbio, Product No. 62TKOPEC), MgCl2 (Sigma, Product No. M1028), MnCl2 (Sigma, Product No. M1787), DTT (Sigma, Product No. D0632), ATP (Sigma, Product No. A7699-1 g), DMSO (Sigma, Product No. D2650), 384-well plate (PE, Product No. 6008280).
(§3) The entire operation steps were carried out on ice, and the total reaction volume was 10 μL. The compound (4 μL), substrate and ATP (4 μL), kinase (2 μL) were added in sequence to a 384-well plate, and shaked for 30 seconds. After an appropriate time at room temperature, the detection reagent was added. After 1 hour at room temperature, the plate was detected with a microplate reader. The specific steps were as follows: • a) 1× kinase buffer solution required for kinase detection was calculated according to the amount of the detection compound, and prepared as needed; • b) compounds with 2.5×working concentration were prepared, the 100 times gradient concentration solution of compounds was diluted by 4 μL to the desired concentration, mixed well, and added to each well at 4 μL per well; • c) 5×working concentration of substrate and ATP were prepared, mixed in a ratio of 1:1 before adding to a 384-well plate, and added to each well at 4 μL per well; • d) 5×working concentration of kinase was prepared, and 2 μL was added to each well; • e) the plate was shaked on a microplate oscillator for 30 seconds, sealed with a sealing membrane, and reacted at room temperature for an appropriate time; • f) 4×working concentrations of streptavidin XL-665 and TK antibody-cryptate compound were prepared, mixed in a ratio of 1:1 before adding to a 384-well plate, and added to each well at 10 μL per well; • g) the plate was read after reacting at room temperature for 1 hour; • h) the wells with only substrate, ATP and 1% DMSO added but no kinase were blank control wells, and the wells with only substrate, ATP, 1% DMSO and kinase were positive control wells.
(§4) Readings: The values of 620 nm (cryptate) and 665 nm (XL665) were read with a BioTek Synerg Neo2 microplate reader, the ratio of 665/620 per well was calculated, and the data were exported. Data analysis: IC50 was calculated using GraphPad Prism 7.0 software. The following nonlinear fitting formula was used to obtain the IC50 (half inhibitory concentration) of compounds:
(§5) [formula] • X: Compound concentration log value • Y: Inhibition rate (% inhibition)
(§6) The kinase inhibition rate (% inhibition rate) was calculated as: […]

TEC = biological target: T2, TEC (Homo sapiens, UniProt P42680); assay: HTRF kinase activity inhibition assay, TEC; assay type: biochemical; details: HTRF TK kit
T2 construct: purchased Carna 08-182
T2 sequence (P42680 1-631): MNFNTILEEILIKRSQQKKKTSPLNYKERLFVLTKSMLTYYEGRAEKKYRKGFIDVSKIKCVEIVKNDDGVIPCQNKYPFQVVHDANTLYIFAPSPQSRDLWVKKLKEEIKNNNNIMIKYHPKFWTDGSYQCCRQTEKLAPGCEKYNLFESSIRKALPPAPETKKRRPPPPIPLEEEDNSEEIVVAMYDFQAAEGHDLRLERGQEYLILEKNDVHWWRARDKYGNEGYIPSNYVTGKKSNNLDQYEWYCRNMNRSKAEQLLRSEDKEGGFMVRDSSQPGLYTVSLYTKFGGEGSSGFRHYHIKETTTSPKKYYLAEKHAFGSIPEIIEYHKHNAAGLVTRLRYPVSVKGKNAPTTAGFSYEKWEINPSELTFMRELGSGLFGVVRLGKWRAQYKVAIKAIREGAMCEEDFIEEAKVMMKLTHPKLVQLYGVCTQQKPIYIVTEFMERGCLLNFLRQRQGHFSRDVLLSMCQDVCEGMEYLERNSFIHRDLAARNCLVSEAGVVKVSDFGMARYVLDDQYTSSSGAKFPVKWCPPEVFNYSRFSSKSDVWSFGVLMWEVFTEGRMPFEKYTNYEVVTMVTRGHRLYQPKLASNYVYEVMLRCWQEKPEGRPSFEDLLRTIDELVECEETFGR
Text: as §1, §2, §3, §4, §5, §6

[1] = biological target: T3, phosphorylated BTK Y223 in NIH/3T3 BTK C481S cells (Homo sapiens, UniProt Q06187, C481S); assay: Phosphor-BTK(Y223) assay, NIH/3T3 BTK C481S cells; assay type: cell-based; details: phosphorylated BTK Y223, NIH/3T3 BTK C481S cells; read-out: NIH/3T3 BTK-C481S pBTK IC50
T3 construct: expressed in transfected cells; host or cells: NIH/3T3 (mouse fibroblasts) engineered to express BTK C481S
Procedure: The purpose of this assay is to simply, quickly and directly detect the endogenous level of BTK in cells. The specific assay steps are as follows: Day 1: NIH/3T3 BTK WT cells (7.5 k/well) and NIH/3T3 BTK C481S cells (10 k/well) were plated in 96-well plates, respectively, and cultured overnight at 37° C. and 5% CO2.
• 1. A 3-fold final concentration gradient dilution of the compound was prepared, and 50 μL was added to 100 μL of cell culture; 0.5% DMSO was used as a positive control for cell growth. • 2. The plate was incubated at 37° C., 5% CO2 for 0.5 h. • 3. Na3VO4 with a final concentration of 1 mM was added, and incubated at 37° C. and 5% CO2 for 2 hours. • 4. During the incubation, the following reagents were prepared: 1× added lysis buffer: 3 vol ddH2O+1 vol 4× lysis buffer+100× blocking reagent. p-BTK (Y223) cryptate-antibody and p-BTK (Y223) d2-antibody working solutions: 1 volume of each cryopreserved antibody (stored at −20° C.) was added to 19 times volumes of assay buffer (stored at 4° C.). • 5. After the incubation, the medium was removed and 50 μL of 1× added lysis buffer was added; The mixture was centrifuged at 500 rpm for 30 min at room temperature. • 6. The lysate was mixed well and 16 μL was transferred to a 384-well plate; 1× added lysis buffer was used as a blank control. • 7. 4 μL of pre-mixed working solutions of the two antibodies (cryptate Ab:d2 Ab=1:1) were added and the plate was sealed. • 8. The plate was incubated overnight at room temperature.
Biotek cytation3.0 microplate reader was used to read the plate at 665 nm and 620 nm, and the ratio of 665/620 nm per well was calculated.
IC50 was calculated using GraphPad Prism 7.0 software.
The following nonlinear fitting formula was used to obtain the phosphorylated BTK Y223 IC50 (half phosphorylation inhibitory concentration) of the compounds:
as §5
The formula for calculating cell phosphorylation inhibition rate (% inhibition rate) was: […]

T3 sequence (Q06187 whole entry C481S): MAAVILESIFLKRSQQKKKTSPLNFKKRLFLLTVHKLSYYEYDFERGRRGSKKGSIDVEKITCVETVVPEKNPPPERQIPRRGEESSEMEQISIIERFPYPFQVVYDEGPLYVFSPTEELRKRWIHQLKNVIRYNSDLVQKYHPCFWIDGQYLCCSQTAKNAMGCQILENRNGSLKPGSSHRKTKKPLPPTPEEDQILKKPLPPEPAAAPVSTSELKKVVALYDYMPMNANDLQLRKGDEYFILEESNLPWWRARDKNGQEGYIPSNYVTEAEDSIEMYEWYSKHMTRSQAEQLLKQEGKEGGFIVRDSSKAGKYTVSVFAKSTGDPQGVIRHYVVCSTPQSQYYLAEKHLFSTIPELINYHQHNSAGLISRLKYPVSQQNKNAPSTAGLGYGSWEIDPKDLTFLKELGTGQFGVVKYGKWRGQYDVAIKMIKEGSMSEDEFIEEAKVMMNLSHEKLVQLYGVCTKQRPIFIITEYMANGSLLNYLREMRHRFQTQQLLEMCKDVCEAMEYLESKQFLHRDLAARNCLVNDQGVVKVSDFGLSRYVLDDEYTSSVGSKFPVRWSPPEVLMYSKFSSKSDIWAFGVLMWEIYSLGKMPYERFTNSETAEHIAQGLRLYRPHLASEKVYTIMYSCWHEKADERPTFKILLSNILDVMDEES
T1 sequence (Q06187 whole entry C481S): as above

IC50 (BTK C481S kinase) [nM]	IC50 (TEC) [nM]	IC50 [1] [nM]	Structure (SMILES)
≤ 10	100 to 1000	≤ 25	COc1ccc(F)cc1C(=O)NCc1ccc(-c2nn([C@H]3CC[C@H](CO)CC3)c3ncnc(N)c23)cc1 [Example 56, trans-N-(4-(4-amino-1-((1R,4R)-4-(hydroxymethyl)cyclohexyl)-1H-pyrazolo[3,4-d]pyrimidin-3-yl)benzyl)-5-fluoro-2-methoxybenzamide]
≤ 10	100 to 1000	≤ 25	COc1ccc(F)cc1C(=O)NCc1ccc(-c2cc(C3CCC(CO)OC3)n3ncnc(N)c23)cc1 (single isomer, unassigned) [Example 60, N-(4-(4-amino-7-(6-(hydroxymethyl)tetrahydro-2H-pyran-3-yl)pyrrolo[2,1-f][1,2,4]triazin-5-yl)benzyl)-5-fluoro-2-methoxybenzamide]
≤ 10	100 to 1000	≤ 25	COc1ccc(F)cc1C(=O)NCc1ccc(-c2nn([C@H]3CC[C@@H](CO)CC3)c3ncnc(N)c23)cc1 [Example 55, cis-N-(4-(4-amino-1-((1S,4S)-4-(hydroxymethyl)cyclohexyl)-1H-pyrazolo[3,4-d]pyrimidin-3-yl)benzyl)-5-fluoro-2-methoxybenzamide]
10 to 50	1000 to 10000	50 to 100	COc1ccc(F)cc1C(=O)NCc1ccc(-c2cc(C3CCC(CO)OC3)n3ncnc(N)c23)cc1 (single isomer, unassigned) [Example 59, N-(4-(4-amino-7-(6-(hydroxymethyl)tetrahydro-2H-pyran-3-yl)pyrrolo[2,1-f][1,2,4]triazin-5-yl)benzyl)-5-fluoro-2-methoxybenzamide]
≤ 10	100 to 1000	≤ 25	COc1ccc(F)cc1C(=O)NCc1ccc(-c2nn(C3CCC(O)C3)c3ncnc(N)c23)cc1 (single isomer, unassigned) [Example 31, N-(4-(4-amino-1-(3-hydroxycyclopentanyl)-1H-pyrazolo[3,4-d]pyrimidin-3-yl)benzyl)-5-fluoro-2-methoxybenzamide]
≤ 10	100 to 1000	≤ 25	COc1ccc(F)cc1C(=O)NCc1ccc(-c2nn([C@H]3CC[C@@H](O)CC3)c3ncnc(N)c23)cc1 [Example 30, N-(4-(4-amino-1-((1S,4S)-4-hydroxycyclohexyl)-1H-pyrazolo[3,4-d]pyrimidin-3-yl)benzyl)-5-fluoro-2-methoxybenzamide]

Continued, compound first:

Structure (SMILES)	IC50 (BTK C481S kinase) [nM]	IC50 (TEC) [nM]	IC50 [1] [nM]
COc1ccc(F)cc1C(=O)NCc1ccc(-c2nc(C3CCCC(O)C3)n3ccnc(N)c23)cc1 (stereo not drawn) [Example 20, N-(4-(8-amino-3-(3-hydroxycyclohexanyl)imidazo[1,5-a]pyrazin-1-yl)benzyl)-5-fluoro-2-methoxybenzamide]	10 to 50	100 to 1000	≤ 25
COc1ccc(F)cc1C(=O)NCc1ccc(-c2nc(C3CCCC(O)C3)n3ccnc(N)c23)cc1 (single isomer, unassigned) [Example 22, N-(4-(8-amino-3-(3-hydroxycyclohexanyl)imidazo[1,5-a]pyrazin-1-yl)benzyl)-5-fluoro-2-methoxybenzamide]	≤ 10	100 to 1000	≤ 25
COc1ccc(F)cc1C(=O)NCc1ccc(-c2nn(C3CCC(CO)OC3)c3ncnc(N)c23)cc1 (single isomer, unassigned) [Example 18, N-(4-(4-amino-1-(6-(hydroxymethyl)tetrahydro-2H-pyran-3-yl)-1H-pyrazolo[3,4-d]pyrimidin-3-yl)benzyl)-5-fluoro-2-methoxybenzamide]	≤ 10	100 to 1000	≤ 25
COc1ccc(F)cc1C(=O)NCc1ccc(-c2nn(C3CCC(O)CC3)c3ncnc(N)c23)cc1 [Example 29, N-(4-(4-amino-1-((1R,4R)-4-hydroxycyclohexyl)-1H-pyrazolo[3,4-d]pyrimidin-3-yl)benzyl)-5-fluoro-2-methoxybenzamide]	≤ 10	100 to 1000	≤ 25
COc1ccc(F)cc1C(=O)NCc1ccc(-c2nn(C3CCCC(O)C3)c3ncnc(N)c23)cc1 (single isomer, unassigned) [Example 5]	≤ 10	100 to 1000	≤ 25
COc1ccc(F)cc1C(=O)NCc1ccc(-c2nn(C3CCCC(O)C3)c3ncnc(N)c23)cc1 (stereo not drawn) [Example 4]	≤ 10	100 to 1000	25 to 50
COc1ccc(F)cc1C(=O)NCc1ccc(-c2nn(C3CCCC(O)C3)c3ncnc(N)c23)cc1 (single isomer, unassigned) [Example 8]	10 to 50	1000 to 10000	50 to 100
COc1ccc(F)cc1C(=O)NCc1ccc(-c2nn(C3CCCC(O)C3)c3ncnc(N)c23)cc1 (single isomer, unassigned) [Example 6]	≤ 10	100 to 1000	≤ 25
COc1ccc(F)cc1C(=O)NCc1ccc(-c2nn(C3CCCC(O)C3)c3ncnc(N)c23)cc1 (single isomer, unassigned) [Example 7]	≤ 10	100 to 1000	25 to 50

— patent US20250179027A1, “CYCLOALKYL OR HETEROCYCLYL SUBSTITUTED HETEROARYL COMPOUND, AND COMPOSITION AND USE THEREOF” (Shenzhen TargetRx, Inc., priority 2022, published 2025)
